In US11390580B2, “Anti-fungals targeting the synthesis of fungal shingolipids” (THE RESEARCH FOUNDATION FOR THE STATE UNIVERSITY OF NEW YORK, priority 2014, dated 2022):
Values after ≈ are worked out from the molar mass of the structure shown. Values joined by “and” are separate entries in the source; they are usually repeats but may differ in a detail not shown here. Equal values may be shown once. Read-outs that look alike come from different tables or passages of the source.

Columns and labels:
[1] = system: Golgi morphology of C. albicans; assay: C6-NBD-ceramide staining of the Golgi; type: cell-based, Candida albicans; settings: 4 μg/ml
Description: (§1) The Golgi apparatus of C. neoformans and C. albicans was stained with C6-NBD-ceramide using a previously described protocol (Kmetzsch, L. et al. 2011), based on the property that this fluorescent lipid accumulates at the Golgi of either living or fixed cells (Pagano R. E. et al. 1989). […] Cell suspensions were then washed with the same buffer and incubated with C6-NBD-ceramide ([…]) for 16 h at 4° C. The cells were then incubated with bovine serum albumin (BSA, 1%) at 4° C. for 1 h to remove the excess of C6-NBD-ceramide. […] Louis, USA) for 30 min at room temperature. The cells were washed again with PBS and stained cell suspensions were mounted over glass slides as described above and analyzed under an Axioplan 2 (Zeiss, Germany).

[2] = system: Candida albicans; assay: In vitro susceptibility testing (MIC); type: cell-based
[3] = Solubility; type: physicochemical; settings: at 1 mg/ml concentration
[4] = system: Candida krusei; assay: In vitro susceptibility testing (MIC); type: cell-based; settings: for BHBM 24 Hr 50% / BHBM 48 Hr 50%: MIC, QC strain
[5] = system: Golgi morphology of C. neoformans; assay: C6-NBD-ceramide staining of the Golgi; type: cell-based, Cryptococcus neoformans; settings: 4 μg/ml
Description: as §1

[6] = system: Pneumocystis murina; assay: In vitro testing by ATP content (luciferin-luciferase); settings: for inhibition at 0.1 µg/mL / inhibition at 1 µg/mL / inhibition at 10 µg/mL / inhibition at 100 µg/mL: read-out: percentage inhibition of ATP
[7] = system: E. coli DH5α; assay: Antibacterial activity, LB agar well diffusion; settings: up to 160 μg/mL, 30° C., 24 hr
[8] = system: C. neoformans; assay: Synergistic assay (fractional inhibitory index, FIC)
[9] = system: S. cerevisiae heterozygote library mutants
[10] = system: C. neoformans (H99); assay: Transmission electron microscopy of treated cells; settings: 4 μg/mL, 6 hours
[11] = system: Blastomyces dermatitis; assay: In vitro susceptibility testing (MIC); type: cell-based; settings: for BHBM 96 Hr 50%: MIC, FTL strains
[12] = system: C. neoformans secreted vesicles; assay: Vesicle secretion measured by vesicular sterols; type: cell-based, Cryptococcus neoformans
Source text: (§2) WF, white field; NBD-Cer, NBD-ceramide.

[13] = system: Smt1; assay: In vitro Smt1 activity; type: biochemical, C. neoformans
[14] = system: Paecilomyces variotii; assay: In vitro susceptibility testing (MIC); type: cell-based; settings: for BHBM 24 Hr 50% / BHBM 48 Hr 50%: MIC, QC strain
[15] = system: Candida parapsilosis; assay: In vitro susceptibility testing (MIC); type: cell-based; settings: for BHBM 24 Hr 50% / BHBM 48 Hr 50%: MIC, FTL strains
[16] = system: C. albicans secreted vesicles; assay: Vesicle secretion measured by vesicular sterols; type: cell-based, Candida albicans
Source text: as §2

[17] = system: Candida guilliermondii; assay: In vitro susceptibility testing (MIC); type: cell-based
[18] = In vitro toxicity, MTT assay; settings: mouse, J774.16 macrophage cells
[19] = Pharmacokinetics of BHBM; type: in vivo, mice; settings: preliminary studies
[20] = system: Candida albicans SC-5314; assay: Animal studies for candidiasis (intravenous infection); type: in vivo, mice
Description: For survival studies, 8-week old CBA/J female mice (Jackson Laboratory) were used. Eight mice per treatment or control group were used. Mice were infected by intravenous inoculation of 100 μL containing 1×10^5 cells of Candida albicans SC-5314 strain. […] Untreated mice, received 100 μL of PBS/0.4% DMSO. Mice were feed ad-libitum and monitored closely for sign of discomfort. At the end of the survival study, tissue burden culture was performed in mice that survived the infection. Mice were sacrificed and their organs were extracted and homogenized in 10 ml sterile PBS using homogenizer. Organ homogenates were diluted 10 times in PBS, and 100 μL was plated on YPD agar plates and incubated at 30° C. for 72 hours for CFU count.

[21] = system: Candida spp; assay: In vitro susceptibility testing; type: cell-based; settings: most Candida spp examined

Cc1ccccc1C(=O)NN=Cc1ccc(O)c(Br)c1 [BHBM, N′-(3-bromo-4-hydroxybenzylidene)-2-methylbenzohydrazide]
Golgi morphology [1]: changes in the Golgi morphology were dramatic
in vitro activity [2]: not active
MIC range ([2]; 3 Fungus Testing Lab strains): >32 µg/mL
MIC range ([2]; 5 MDP Lab strains): >32 µg/mL
DMSO required [3]: 30%
MIC range ([4]; 1 MDP Lab strain): 32 µg/mL (≈ 96 µM)
MIC range ([4]; ATCC 6258, MDP Lab): 16 µg/mL (≈ 48 µM)
BHBM 24 Hr 50% [4]: 4
BHBM 48 Hr 50% [4]: 8
BHBM 24 Hr 50% ([4]; first listing r7-r78): 4
BHBM 48 Hr 50% ([4]; first listing r7-r78): 8
MIC ([4]; Pichia kudriavzevii, read-out: MIC (moderately active)): 8 to 16 µg/mL (≈ 24 to 48 µM)
MIC range ([4]; QC, Fungus Testing Lab): 8 µg/mL (≈ 24 µM)
Golgi morphology [5]: significant alterations in the Golgi morphology
IC50 ([6]; 24 h, read-out: IC50, P. murina): 1.02 µg/mL (≈ 3.06 µM)
inhibition at 0.1 µg/mL ([6]; 24 h): 6.64%
inhibition at 1 µg/mL ([6]; 24 h): 66.2%
inhibition at 10 µg/mL ([6]; 24 h): 88.2%
inhibition at 100 µg/mL ([6]; 24 h): 97%
IC50 ([6]; 48 h, read-out: IC50, P. murina): < 0.01 µg/mL
inhibition at 0.1 µg/mL ([6]; 48 h): 76%
inhibition at 1 µg/mL ([6]; 48 h): 87.6%
inhibition at 10 µg/mL ([6]; 48 h): 94.6%
inhibition at 100 µg/mL ([6]; 48 h): 98.9%
IC50 ([6]; 72 h, read-out: IC50, P. murina): < 0.01 µg/mL
inhibition at 0.1 µg/mL ([6]; 72 h): 63.8%
inhibition at 1 µg/mL ([6]; 72 h): 74.6%
inhibition at 10 µg/mL ([6]; 72 h): 93.6%
inhibition at 100 µg/mL ([6]; 72 h): 99.4%
IC50 ([6]; 96 h, read-out: IC50, P. murina): 2.02 µg/mL (≈ 6.06 µM)
inhibition at 0.1 µg/mL ([6]; 96 h): 16.6%
inhibition at 1 µg/mL ([6]; 96 h): 44.5%
inhibition at 10 µg/mL ([6]; 96 h): 66.7%
inhibition at 100 µg/mL ([6]; 96 h): 91.5%
IC50 ([6]; read-out: activity class by IC50, P. murina): < 0.01 µg/mL
zone of inhibition [7]: No zone of inhibition
FIC index ([8]; combined with Amphotericin B): 0.75
FIC index ([8]; combined with Fluconazole): 0.38
interaction ([8]; combined with Tunicamycin): synergistic
FIC index ([8]; combined with caspofungin): 1
Fold increased sensitivity to BHBM ([9]; ACT1 heterozygote mutant): 2.0 Fold
Fold increased sensitivity to BHBM ([9]; GLC7 heterozygote mutant): 2.1 Fold
Fold increased sensitivity to BHBM ([9]; GOS1 heterozygote mutant): 2.1 Fold
Fold increased sensitivity to BHBM ([9]; MTW1 heterozygote mutant): 2.5 Fold
Fold increased sensitivity to BHBM ([9]; PEP7 heterozygote mutant): 2.2 Fold
Fold increased sensitivity to BHBM ([9]; REG1 heterozygote mutant): 2.5 Fold
Fold increased sensitivity to BHBM ([9]; RET2 heterozygote mutant): 3.8 Fold
Fold increased sensitivity to BHBM ([9]; RET3 heterozygote mutant): 2.0 Fold
times more sensitive to BHBM ([9]; Rvs167): 1.7 time
Fold increased sensitivity to BHBM ([9]; SAP4 heterozygote mutant): 2.1 Fold
Fold increased sensitivity to BHBM ([9]; SEC26 heterozygote mutant): 2. Fold
Fold increased sensitivity to BHBM ([9]; SEC31 heterozygote mutant): 2.1 Fold
Fold increased sensitivity to BHBM ([9]; SNF8 heterozygote mutant): 2.1 Fold
Fold increased sensitivity to BHBM ([9]; SPT4 heterozygote mutant): 2.3 Fold
Fold increased sensitivity to BHBM ([9]; UBP3 heterozygote mutant): 3.0 Fold
Fold increased sensitivity to BHBM ([9]; VPS3 heterozygote mutant): 2.0 Fold
Fold increased sensitivity to BHBM ([9]; YML018C heterozygote mutant): 2.1 Fold
number of vacuoles per μm^2 of cell surface area [10]: 0.84±0.58
in vitro activity [11]: good in vitro activity
MIC range ([11]; 10 Fungus Testing Lab strains): 0.5 to 1 µg/mL
BHBM 96 Hr 50% [11]: 1 and 2
BHBM 96 Hr 50% ([11]; first listing r7-r78): 1 and 0.5
secreted vesicles measured by sterol content [12]: marked reductions of secreted vesicles
in vitro activity of Smt1 [13]: does not inhibit
in vitro activity [14]: not active
BHBM 24 Hr 50% [14]: 8
BHBM 48 Hr 50% [14]: >16
BHBM 24 Hr 50% ([14]; first listing r7-r78): 8
BHBM 48 Hr 50% ([14]; first listing r7-r78): >16
MIC range ([14]; QC, Fungus Testing Lab): >16 µg/mL
in vitro activity [15]: not active
MIC range ([15]; 3 MDP Lab strains): >32 µg/mL
BHBM 24 Hr 50% [15]: >16
BHBM 48 Hr 50% [15]: >16
BHBM 24 Hr 50% ([15]; first listing r7-r78): >16
BHBM 48 Hr 50% ([15]; first listing r7-r78): >16
MIC range ([15]; QC, Fungus Testing Lab): >16 µg/mL
secreted vesicles measured by sterol content [16]: marked reductions of secreted vesicles
BHBM 24 Hr 50% ([17]; MIC, FTL strains): >16
BHBM 48 Hr 50% ([17]; MIC, FTL strains): >16
MIC ([17]; Meyerozyma guilliermondii, read-out: MIC (moderately active)): 8 to 16 µg/mL (≈ 24 to 48 µM)
EC50 at 48 h [18]: 50 µg/mL (≈ 150 µM)
tissue distribution, brain [19]: found in the brain tissue
mice alive ([20]; 1.2 mg/kg/day intraperitoneally, after 21 days of infection): 62.5%
clearance of infection (tissue burden) ([20]; day 21, surviving treated mice): able to clear C. albicans infection
in vitro susceptibility [21]: resistant
